The subject of data set [1] is radial dendrites. The conditions noted are these: intracochlear perfusion ten minutes prior to or concomitant with AMPA perfusion; cited from earlier work.
Data set [2] relates to auditory nerve fibers. In words: Single unit recording of auditory nerve fibers during intracochlear perfusion (salicylate-induced excitation). Type of data set: in vivo, guinea pig. As for the experimental part: (§1) Experiments were performed on adult guinea pigs weighing from about 250 g to 300 g. The animals were anaesthetized with urethane (1.4 g/kg, i.p.) and artificially respired. Supplemental doses of urethane (0.35 g/kg, i.p.) were administered every 2 hr, or more often if the animal withdrew its paw in response to pressure applied to the paw. The rectal temperature was maintained at about 38.5±1° C., and heart rate (normal range 260-330 beats/min) monitored using EKG electrodes. The external auditory canal was opened near the tympanic annulus, exposing the tympanic membrane and allowing sound to reach the drum without any obstruction. At the end of the experiment, the animals were euthanized by intracardiac injection of an overdose of sodium pentobarbitone.
Salicylate Tinnitus Model. Salicylate, the active component of aspirin, is of special concern in auditory science because it induces tinnitus in humans. The efficacy of agents to treat tinnitus was tested by measuring firing rate of the auditory nerve fibers in presence of salicylate.
Briefly, the test solutions were applied into the cochlea using a multi-barrel perfusion pipette (ASI Instruments) placed into a hole made in the basal turn scala tympani and allowed to flow out of the cochlea through a hole (0.2 mm diameter) made at the apex. The cochlear nerve was exposed using a posterior fossa approach. Extracellular action potentials from single auditory nerve fibers were recorded with glass microelectrodes. Once a single unit was isolated, spontaneous activity was averaged over 10 seconds. The unit's tuning curves were then determined by a computer-controlled, threshold-tracking program using a 200 ms tone burst presented at 3/s. The threshold criterion was a difference of 10 spikes/s, i.e., 2 spikes difference between the tone (200 ms) and non-tone (200 ms) counting intervals. The program determined the characteristic frequency (CF) and the frequency tuning of the fiber by measuring the Q10dB defined as the CF divided by the bandwidth at 10 dB above the CF threshold.
An experiment was carried out to determine the ability of perfused Glutamate antagonists to suppress salicylate-induced excitation.

Data set [3] deals with inner ear. The conditions noted are these: acute cochlear perfusion; Wang et al., Neuroscience 2002; cited from earlier work.
Data set [4] has as its system cochlea. In words: CAP amplitude after chronic round window perfusion. Type of data set: in vivo, guinea pig. The conditions noted are these: 8 kHz tone burst stimulation, mean of 5 animals. As for the experimental part: as §1
Data set [5] relates to cochlea. In words: CAP amplitude after acute intracochlear perfusion. The class given is in vivo, guinea pig. The conditions noted are these: 8 kHz tone burst stimulation, mean of 5 animals. As for the experimental part:
as §1

The subject of data set [6] is rats. In words: Behavioral model of salicylate-induced tinnitus (active avoidance task). As for the experimental part: To verify that the excitatory action of sodium-salicylate on the auditory nerve fibers results in perception of tinnitus, a behavioral model was designed in rats based upon an active avoidance task. Animals were trained to respond to a conditioned stimulus consisting of a 10 kHz tone burst of 3 s duration.
(§2) CAP threshold shifts were calculated as the difference in dB between the auditory threshold at day 0 and the auditory threshold at each day. To avoid changes due to hearing loss, the intensity of sound eliciting behavioral responses was adjusted as a function of CAP threshold shift.
Gelfoam placed on the round window was used to apply drugs into the fluid of the cochlea.
To support the hypothesis that salicylate induced false positive via cochlear NMDA receptors, we applied other NMDA antagonists into the perilymphatic fluids using gelfoam placed on the round window of both ears.

In data set [7] the test system is guinea pigs. The note with it: intracochlear perfusion; cited from earlier work.
The test system of data set [8] is rats. The note with it: 300 mg/kg/day i.p. during 4 days; frequency range 2 to 26 KHz. As for the experimental part:
CAP thresholds were measured using an electrode chronically implanted on round window in response to a tone burst of 1 ms rise/fall time and 9 ms duration presented at a rate of 10 times per second.
as §2

The mark [9] stands for this setting: intracochlear perfusion, 50 μM, 5 mM NaSal.
Setting [10] is: 300 mg/kg/day i.p., daily during 4 days.

“Also recorded” adds a separate entry of the source.

On to `O=c1[nH]c2cc([N+](=O)[O-])c([N+](=O)[O-])cc2[nH]c1=O` [DNQX, 6-7-dinitorquinoxaline-2,3-dione], for which the radial dendrite swelling result in data set [1] is on record as “prevented most of the occurrence of radial dendrite swelling”.

Regarding `CNC(=O)N1N=C(c2ccc(N)cc2)c2cc3c(cc2C[C@H]1C)OCO3` [GYKI 53784], in data set [2] (intracochlear perfusion, 50 μM), the “auditory nerve fiber activity evoked by sound” value was “blocked both spontaneous activity and those evoked induced by sodium-salicylate or sound”; the “spontaneous activity of the auditory nerve fiber” value (from here on “spontaneous activity”) is “blocked both the spontaneous and the evoked activity”. The “neural excitation of auditory nerve induced by sodium-salicylate” value (“neural excitation” below) in data set [2] (setting [9]) is “blocked both the spontaneous and the evoked activity”.

With `Nc1nc2ccc(OC(F)(F)F)cc2s1` [Riluzole], the “hearing after noise induced hearing loss” value in data set [3] is “rescues hearing after noise induced hearing loss”. The “mean amplitude of the CAP” value is “reduced the CAP amplitude in the dose dependent manner” in data set [4] and “reduce the CAP amplitude in a dose-dependent manner” in data set [5].

Turning to `CC1CCCCC1(c1cccs1)N1CCCCC1` (stereo not shown) [gacyclidine, Gacyclidine], the “score under salicylate treatment” value in data set [6] (50 μM, gelfoam on the round window) is reported as “reduction of the score still been unchanged”. Moreover, the “spontaneous activity” value in data set [2] (intracochlear perfusion, 50 μM) was “had no effect on spontaneous activity; also recorded: not the spontaneous activity of the fiber”. Moreover, the “neural excitation” value in data set [2] (setting [9]) was “suppressed neural excitation induced by sodium-salicylate; also recorded: suppressed neural excitation of auditory nerve induced by Na Salicylate”.

For the molecule `COc1ccc2c(c1)c(CC(=O)O)c(C)n2C(=O)c1ccc(Cl)cc1` [indomethacin], the “spontaneous activity” value in data set [2] (intracochlear perfusion, 100 μM in artificial perilymph, fiber coding for 8 kHz) is recorded as “did not change the spontaneous activity of the auditory nerve fiber”.

On to `O=C(O)c1cc(=O)c2ccccc2[nH]1` [kynurenate], for which, in data set [7], the “protection against sound-induced synaptic damage” value was “protects against sound-induced synaptic damage”.

Turning to `O=C([O-])c1ccccc1O.[Na+]` [sodium-salicylate], in data set [6] (setting [10]), the “number of false positives (responses without sound)” value is given as “drastic increase of the number of false positives” and the “score (positive responses to sound, % of total)” value is given as “reversible reduction of the score”. Moreover, in data set [6] (salicylate days 2 to 5, sound intensity adjusted as a function of CAP threshold shift), the “score (positive responses to sound)” value is “no significant decrease in the score was observed”. The false positive responses entry in data set [6] (salicylate treatment, sound intensity adjusted as a function of CAP threshold shift) is reported as “false positive responses still remained”. Further, the “hearing loss (CAP threshold)” value in data set [8] amounted to 30 dB. For the same molecule, the “spontaneous firing of the auditory nerve fibers” value in data set [2] (intracochlear application, 5 mM) was “reversibly increased spontaneous firing of the auditory nerve fibers”.

On to Dizocilpine [MK 801], for which the “score under salicylate treatment” value in data set [6] (10 μM, gelfoam on the round window) is on record as “reduction of the score still been unchanged”. In addition, the “number of false positive responses induced by salicylate” value in data set [6] (10 μM, gelfoam on the round window, day 4 of salicylate treatment, n=10) is recorded as “drastically reduced the occurrence of the false positive responses”. In data set [2] (intracochlear perfusion, 10 μM), the “neural excitation” value was “suppressed neural excitation induced by sodium-salicylate” and the “spontaneous activity” value is reported as “had no effect on spontaneous activity”.

Values taken from patent US20100173874A1, “Delivery of modulators of glutamate-mediated neurotransmission to the inner ear” (priority 2002, published 2010).
